Laboratory results published in article PMC5468247, “Development of a selective agonist for relaxin family peptide receptor 3” (Scientific Reports, 2017).

Assays:
human RXFP4 [1] = molecular target: T1, human RXFP4 (Homo sapiens, UniProt Q8TDU9); experiment: Receptor activation assay, CRE-controlled NanoLuc reporter; type: cell-based
T1 construct: expressed in transfected cells; host or cells: HEK293T
From the text: (§1) HEK293T cells transiently cotransfected with a CRE-controlled NanoLuc reporter vector and the expression construct of human RXFP3 or human RXFP4 were used for activation assays. The measured bioluminescence data are expressed as means ± SE (n = 3) and fitted to sigmoidal or linear curves using SigmaPlot 10.0.
(§2) Briefly, HEK293T cells were transiently cotransfected with the NanoLuc reporter vector pNL1.2/CRE and the expression construct of human RXFP3 or human RXFP4. On the next day, transfected cells were trypsinised, seeded into 96-well plates, and continuously cultured for 24–36 h to ~90% confluence. To initiate activation assays, medium was removed and activation solution (serum-free DMEM medium plus 1% bovine serum albumin) containing 1.0 μM of forskolin and various concentrations of peptide was added (100 μl/well). After continuous culturing at 37 °C for 4 h, activation solution was removed and cells were lysed with lysis solution (100 μl/well, Promega). Cell lysates were then transferred to a white opaque 96-well plate (50 μl/well), mixed with freshly diluted substrate (50 μl/well), and bioluminescence was immediately measured on a SpectraMax M5 plate reader (Molecular Devices) in luminescence mode. The measured data were expressed as means ± SE (n = 3) and fitted to sigmoidal or linear curves using SigmaPlot 10.0 software.

human RXFP3 [2] = molecular target: T2, human RXFP3 (Homo sapiens, UniProt Q9NSD7); experiment: as above; type: cell-based; details: for fold lower activation potency towards RXFP3 compared with R3/I5: relative to R3/I5; for fold higher activation potency towards RXFP3 than towards RXFP4: selectivity RXFP3 over RXFP4, from activation assays
T2 construct: expressed in transfected cells; host or cells: HEK293T
T2 sequence (Q9NSD7 1-469): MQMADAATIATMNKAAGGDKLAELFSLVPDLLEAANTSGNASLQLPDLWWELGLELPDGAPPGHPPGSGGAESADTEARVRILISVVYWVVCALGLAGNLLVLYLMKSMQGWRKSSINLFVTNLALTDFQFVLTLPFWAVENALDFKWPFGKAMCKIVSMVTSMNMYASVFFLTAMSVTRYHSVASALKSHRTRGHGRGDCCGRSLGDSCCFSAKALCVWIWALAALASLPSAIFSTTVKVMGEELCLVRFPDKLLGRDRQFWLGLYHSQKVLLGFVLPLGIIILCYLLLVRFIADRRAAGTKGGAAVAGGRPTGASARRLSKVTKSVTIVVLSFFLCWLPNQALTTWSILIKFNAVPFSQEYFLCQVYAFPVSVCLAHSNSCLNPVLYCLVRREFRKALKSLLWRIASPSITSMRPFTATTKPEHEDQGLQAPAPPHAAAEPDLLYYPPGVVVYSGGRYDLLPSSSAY
From the text: as §1, §2

human RXFP4 [3] = molecular target: T1, human RXFP4; experiment: Receptor binding assay, NanoLuc-conjugated R3/I5 tracer competition; details: compared with R3/I5
Experimental: (§3) Specific binding data are expressed as means ± SE (n = 3) and fitted to sigmoidal curves using SigmaPlot 10.0 software.
(§4) Briefly, HEK293T cells were transiently transfected with an expression construct of human RXFP3 or human RXFP4. On the next day, transfected cells were trypsinised, seeded into 96-well plates, and continuously cultured for 24–36 h to ~100% confluence. […] After incubation at 21 °C for 2 h, binding solution was removed and cells were washed twice with ice-cold phosphate-buffered saline (200 μl/well for each wash). Thereafter, cells were lysed by lysis solution (100 μl/well, Promega, Madison, WI, USA) and cell lysates were transferred to a white opaque 96-well plate (50 μl/well). After mixing with freshly diluted substrate (50 μl/well), bioluminescence was immediately measured on a SpectraMax M5 plate reader (Molecular Devices, Sunnyvale, CA, USA) in luminescence mode. […] The calculated specific binding data were expressed as means ± standard error (SE; n = 3) and fitted to sigmoidal curves using SigmaPlot 10.0 software.

human RXFP3 [4] = molecular target: T2, human RXFP3; experiment: as above; details: for binding potency towards RXFP3, in words: compared with R3/I5
Experimental: as §3, §4

[5] = CRE-NanoLuc reporter, human RXFP3

T1 sequence (Q8TDU9 whole entry): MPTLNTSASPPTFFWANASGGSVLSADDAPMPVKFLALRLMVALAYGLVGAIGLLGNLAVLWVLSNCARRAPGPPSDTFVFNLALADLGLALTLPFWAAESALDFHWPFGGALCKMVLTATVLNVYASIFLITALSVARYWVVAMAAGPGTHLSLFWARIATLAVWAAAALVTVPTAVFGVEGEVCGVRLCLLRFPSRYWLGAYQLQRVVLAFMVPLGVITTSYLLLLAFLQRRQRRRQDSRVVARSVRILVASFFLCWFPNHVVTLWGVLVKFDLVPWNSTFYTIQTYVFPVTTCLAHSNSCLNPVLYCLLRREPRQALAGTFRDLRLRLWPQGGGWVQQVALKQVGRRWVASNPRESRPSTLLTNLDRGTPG

Row | Structure (SMILES) | activation potency towards RXFP4, in words (human RXFP4 [1]; compared with R3/I5) | activation potency towards RXFP3, in words (human RXFP3 [2]; CRE-NanoLuc reporter, human RXFP3, compared with R3/I5) | binding potency towards RXFP4, in words (human RXFP4 [3]) | binding potency towards RXFP3, in words (human RXFP3 [4]) | fold lower activation potency towards RXFP4 compared with R3/I5 (human RXFP4 [1]; relative to R3/I5) | fold lower activation potency towards RXFP3 compared with R3/I5 (human RXFP3 [2]; [5]) | fold higher activation potency towards RXFP3 than towards RXFP4 (human RXFP3 [2]) | fold lower binding potency for RXFP3 compared with R3/I5 (human RXFP3 [4]; relative to R3/I5)
1 | CC[C@H](C)[C@@H]1NC(=O)[C@H](Cc2ccccc2)NC(=O)[C@H](CCC(=O)O)NC(=O)[C@H](CCCNC(=N)N)NC(=O)CNC(=O)[C@@H](NC(=O)[C@H](CC(C)C)NC(=O)[C@H](CCCNC(=N)N)NC(=O)[C@@H](NC(=O)CNC(=O)[C@H](Cc2ccc(O)cc2)NC(=O)[C@@H]2CCCN2C(=O)[C@H](C)NC(=O)[C@H](C)NC(=O)[C@H](CCCNC(=N)N)NC(=O)[C@@H]2CCC(=O)N2)C(C)C)CSSC[C@@H]2NC(=O)[C@@H](NC(=O)[C@H](CC(C)C)NC(=O)[C@@H](NC(=O)[C@H](CCC(N)=O)NC(=O)[C@H](CC(C)C)NC(=O)[C@H](CC(=O)O)NC(=O)[C@H](CCC(N)=O)NC(=O)[C@H](CCCNC(=N)N)NC(=O)[C@H](CO)NC(=O)[C@H](CCCNC(=N)N)NC(=O)[C@H](CCCNC(=N)N)NC(=O)[C@H](CO)NC(=O)[C@@H](N)CCCNC(=N)N)[C@@H](C)O)CSSC[C@H](NC(=O)CNC(=O)[C@H](CC(=O)O)NC(=O)[C@H]([C@@H](C)O)NC2=O)C(=O)N[C@@H](CO)C(=O)N[C@@H](CCSC)C(=O)N[C@@H]([C@@H](C)O)C(=O)N[C@@H](CC(=O)O)C(=O)N[C@@H](CC(C)C)C(=O)N[C@@H](CO)C(=O)N[C@@H](C)C(=O)N[C@@H](CC(C)C)C(=O)N[C@H](C(=O)O)CSSC[C@@H](C(=O)NCC(=O)N[C@@H](C)C(=O)N[C@@H](CO)C(=O)N[C@@H](CCCNC(=N)N)C(=O)N[C@@H](Cc2c[nH]c3ccccc23)C(=O)O)NC(=O)[C@H]([C@@H](C)O)NC(=O)[C@H](Cc2ccccc2)NC(=O)[C@H]([C@@H](C)CC)NC(=O)[C@H](C(C)C)NC(=O)[C@H](C)NC(=O)[C@H](CCCNC(=N)N)NC1=O [[G(B24)A]R3/I5] | retained full activation potency | retained full activation potency | retained full binding potency | retained full binding potency |  |  |  | 
2 | CC[C@H](C)[C@@H]1NC(=O)[C@H](Cc2ccccc2)NC(=O)[C@H](CCC(=O)O)NC(=O)[C@H](CCCNC(=N)N)NC(=O)CNC(=O)[C@@H](NC(=O)[C@H](CC(C)C)NC(=O)[C@H](CCCNC(=N)N)NC(=O)[C@@H](NC(=O)CNC(=O)[C@H](Cc2ccc(O)cc2)NC(=O)[C@@H]2CCCN2C(=O)[C@H](C)NC(=O)[C@H](C)NC(=O)[C@H](CCCNC(=N)N)NC(=O)[C@@H]2CCC(=O)N2)C(C)C)CSSC[C@@H]2NC(=O)[C@@H](NC(=O)[C@H](CC(C)C)NC(=O)[C@@H](NC(=O)[C@H](CCC(N)=O)NC(=O)[C@H](CC(C)C)NC(=O)[C@H](CC(=O)O)NC(=O)[C@H](CCC(N)=O)NC(=O)[C@H](CCCNC(=N)N)NC(=O)[C@H](CO)NC(=O)[C@H](CCCNC(=N)N)NC(=O)[C@H](CCCNC(=N)N)NC(=O)[C@H](CO)NC(=O)[C@@H](N)CCCNC(=N)N)[C@@H](C)O)CSSC[C@H](NC(=O)CNC(=O)[C@H](CC(=O)O)NC(=O)[C@H]([C@@H](C)O)NC2=O)C(=O)N[C@@H](CO)C(=O)N[C@@H](CCSC)C(=O)N[C@@H]([C@@H](C)O)C(=O)N[C@@H](CC(=O)O)C(=O)N[C@@H](CC(C)C)C(=O)N[C@@H](CO)C(=O)N[C@@H](C)C(=O)N[C@@H](CC(C)C)C(=O)N[C@H](C(=O)O)CSSC[C@@H](C(=O)NCC(=O)NCC(=O)NCC(=O)N[C@@H](CO)C(=O)N[C@@H](CCCNC(=N)N)C(=O)N[C@@H](Cc2c[nH]c3ccccc23)C(=O)O)NC(=O)[C@H]([C@@H](C)O)NC(=O)[C@H](Cc2ccccc2)NC(=O)[C@H]([C@@H](C)CC)NC(=O)[C@H](C(C)C)NC(=O)[C@H](C)NC(=O)[C@H](CCCNC(=N)N)NC1=O [[+G(B23-24)]R3/I5] |  |  | comparable with R3/I5 | comparable with R3/I5 | ~ 100 fold | ~ 100 fold |  | 
3 | CC[C@H](C)[C@@H]1NC(=O)[C@H](Cc2ccccc2)NC(=O)[C@H](CCC(=O)O)NC(=O)[C@H](CCCNC(=N)N)NC(=O)CNC(=O)[C@@H](NC(=O)[C@H](CC(C)C)NC(=O)[C@H](CCCNC(=N)N)NC(=O)[C@@H](NC(=O)CNC(=O)[C@H](Cc2ccc(O)cc2)NC(=O)[C@@H]2CCCN2C(=O)[C@H](C)NC(=O)[C@H](C)NC(=O)[C@H](CCCNC(=N)N)NC(=O)[C@@H]2CCC(=O)N2)C(C)C)CSSC[C@@H]2NC(=O)[C@@H](NC(=O)[C@H](CC(C)C)NC(=O)[C@@H](NC(=O)[C@H](CCC(N)=O)NC(=O)[C@H](CC(C)C)NC(=O)[C@H](CC(=O)O)NC(=O)[C@H](CCC(N)=O)NC(=O)[C@H](CCCNC(=N)N)NC(=O)[C@H](CO)NC(=O)[C@H](CCCNC(=N)N)NC(=O)[C@H](CCCNC(=N)N)NC(=O)[C@H](CO)NC(=O)[C@@H](N)CCCNC(=N)N)[C@@H](C)O)CSSC[C@H](NC(=O)CNC(=O)[C@H](CC(=O)O)NC(=O)[C@H]([C@@H](C)O)NC2=O)C(=O)N[C@@H](CO)C(=O)N[C@@H](CCSC)C(=O)N[C@@H]([C@@H](C)O)C(=O)N[C@@H](CC(=O)O)C(=O)N[C@@H](CC(C)C)C(=O)N[C@@H](CO)C(=O)N[C@@H](C)C(=O)N[C@@H](CC(C)C)C(=O)N[C@H](C(=O)O)CSSC[C@@H](C(=O)NCC(=O)N[C@H](C(=O)N[C@@H](CO)C(=O)N[C@@H](CCCNC(=N)N)C(=O)N[C@@H](Cc2c[nH]c3ccccc23)C(=O)O)C(C)C)NC(=O)[C@H]([C@@H](C)O)NC(=O)[C@H](Cc2ccccc2)NC(=O)[C@H]([C@@H](C)CC)NC(=O)[C@H](C(C)C)NC(=O)[C@H](C)NC(=O)[C@H](CCCNC(=N)N)NC1=O [[G(B24)V]R3/I5] |  |  |  |  |  | ~ 10 fold | ~ 10 fold | ~ 5 fold
4 | CC[C@H](C)[C@@H]1NC(=O)[C@H](Cc2ccccc2)NC(=O)[C@H](CCC(=O)O)NC(=O)[C@H](CCCNC(=N)N)NC(=O)CNC(=O)[C@@H](NC(=O)[C@H](CC(C)C)NC(=O)[C@H](CCCNC(=N)N)NC(=O)[C@@H](NC(=O)CNC(=O)[C@H](Cc2ccc(O)cc2)NC(=O)[C@@H]2CCCN2C(=O)[C@H](C)NC(=O)[C@H](C)NC(=O)[C@H](CCCNC(=N)N)NC(=O)[C@@H]2CCC(=O)N2)C(C)C)CSSC[C@@H]2NC(=O)[C@@H](NC(=O)[C@H](CC(C)C)NC(=O)[C@@H](NC(=O)[C@H](CCC(N)=O)NC(=O)[C@H](CC(C)C)NC(=O)[C@H](CC(=O)O)NC(=O)[C@H](CCC(N)=O)NC(=O)[C@H](CCCNC(=N)N)NC(=O)[C@H](CO)NC(=O)[C@H](CCCNC(=N)N)NC(=O)[C@H](CCCNC(=N)N)NC(=O)[C@H](CO)NC(=O)[C@@H](N)CCCNC(=N)N)[C@@H](C)O)CSSC[C@H](NC(=O)CNC(=O)[C@H](CC(=O)O)NC(=O)[C@H]([C@@H](C)O)NC2=O)C(=O)N[C@@H](CO)C(=O)N[C@@H](CCSC)C(=O)N[C@@H]([C@@H](C)O)C(=O)N[C@@H](CC(=O)O)C(=O)N[C@@H](CC(C)C)C(=O)N[C@@H](CO)C(=O)N[C@@H](C)C(=O)N[C@@H](CC(C)C)C(=O)N[C@H](C(=O)O)CSSC[C@@H](C(=O)NCC(=O)N[C@H](C(=O)N[C@@H](CO)C(=O)N[C@@H](CCCNC(=N)N)C(=O)N[C@@H](Cc2c[nH]c3ccccc23)C(=O)O)[C@@H](C)O)NC(=O)[C@H]([C@@H](C)O)NC(=O)[C@H](Cc2ccccc2)NC(=O)[C@H]([C@@H](C)CC)NC(=O)[C@H](C(C)C)NC(=O)[C@H](C)NC(=O)[C@H](CCCNC(=N)N)NC1=O [[G(B24)T]R3/I5] |  |  |  |  |  | ~ 20 fold | ~ 2 fold | 
